Laboratory results as given in ChEMBL document CHEMBL1208787 (Bioorg Med Chem Lett, 2010).

Columns and labels:
Rattus norvegicus [1] = assay: Antiinflammatory activity in rat assessed as inhibition of carrageenan-induced paw edema administered orally at dose equivalent to 70 mg/kg ibuprofen after 4 hrs; assay type: functional; settings: route oral
Mus musculus = assay: Analgesic activity in po dosed mouse assessed as decrease in tail flick tendency after 4 hrs by tail flick test; assay type: functional
Rattus norvegicus [2] = assay: Gastrointestinal toxicity in rat assessed as ulcerogenic index administered orally at dose equivalent to 210 mg/kg ibuprofen; assay type: organism-based; set-up: dose 210 mg/kg, route oral; settings: in vivo, po
[3] = test system: Stomach (Rattus norvegicus); assay: Gastrointestinal toxicity in rat gastric mucosa assessed as ulcerogenic activity-related malonaldehyde level per 100 mg of tissue administered orally at dose equivalent to 210 mg/kg ibuprofen (RVb = 3.26 nmol); settings: in vivo, po
Rattus norvegicus [4] = assay: Hepatotoxicity in po dosed rat assessed as effect on serum SGOT level (reference value: 143.71 +/- 1.1 U/mL); assay type: toxicity, organism-based; settings: in vivo
Rattus norvegicus [5] = assay: Hepatotoxicity in po dosed rat assessed as effect on serum SGPT level (reference value: 32.46 +/- 0.76 U/mL); assay type: toxicity, organism-based; settings: in vivo
Rattus norvegicus [6] = assay: Hepatotoxicity in po dosed rat assessed as effect on serum alkaline phosphatase level (reference value: 12.17 +/- 0.16 U/mL); assay type: toxicity, organism-based; settings: in vivo
Rattus norvegicus [7] = assay: Hepatotoxicity in po dosed rat assessed as effect on total serum protein level (reference value: 1.72+/- 0.02 g/dl); assay type: toxicity, organism-based; settings: in vivo
Rattus norvegicus [8] = assay: Hepatotoxicity in po dosed rat assessed as effect on total albumin level (reference value: 1.63 +/- 0.02 g/dl); assay type: toxicity, organism-based; settings: in vivo
Liver [9] = assay: Hepatotoxicity in po dosed rat liver assessed as effect on hepatocyte morphological changes by histopathological analysis; assay type: toxicity, organism-based; settings: hepatocytes
Rattus norvegicus [10] = assay: Antiinflammatory activity in rat assessed as inhibition of carrageenan-induced paw edema at 70 mg/kg, po after 4 hrs; assay type: functional
Rattus norvegicus [11] = assay: Gastrointestinal toxicity in rat assessed as ulcerogenic index at 210 mg/kg, po; assay type: organism-based; set-up: dose 210 mg/kg, route oral; settings: in vivo
Liver [12] = assay: Gastrointestinal toxicity in rat liver assessed as ulcerogenic activity-related malonaldehyde level per 100 mg of tissue at 210 mg/kg, po (RVb = 3.26 nmol); assay type: organism-based; set-up: dose 210 mg/kg, route oral; settings: in vivo

**Q.** How did the inhibition in vivo (Rattus norvegicus [1]) turn out when `c1ccc(-c2nn3c(-c4ccncc4)nnc3s2)cc1` was run?
**A.** Its inhibition in vivo is 66.4%.

**Q.** What about the “inhibition (INH)” value (Mus musculus) of the same molecule?
**A.** Its value is 56.06%.

**Q.** What about the UI (Rattus norvegicus [2]) of the same molecule?
**A.** Its UI is 0.666.

**Q.** And the Activity [3]?
**A.** The Activity was 5.78 nmol.

**Q.** For `Clc1ccccc1-c1nn2c(-c3ccncc3)nnc2s1`, which inhibition in vivo (Rattus norvegicus [1]) is on record?
**A.** The inhibition in vivo was 45.4%.

**Q.** And the “inhibition (INH)” value (Mus musculus)?
**A.** Its value is 37.27%.

**Q.** And the UI (Rattus norvegicus [2])?
**A.** Its UI is 1.417.

**Q.** What about the Activity [3] of the same molecule?
**A.** Its Activity is 8.8 nmol.

**Q.** With `Clc1ccc(-c2nn3c(-c4ccncc4)nnc3s2)c(Cl)c1` as the molecule, how does the inhibition in vivo (Rattus norvegicus [1]) read?
**A.** The inhibition in vivo was 69.3%.

**Q.** And the “inhibition (INH)” value (Mus musculus)?
**A.** The value was 61.81%.

**Q.** What about the UI (Rattus norvegicus [2]) of the same molecule?
**A.** The UI was 0.75.

**Q.** And the Activity [3]?
**A.** The Activity was 6.71 nmol.

**Q.** Which results are given for `Cc1ccccc1-c1nn2c(-c3ccncc3)nnc2s1`?
**A.** inhibition in vivo (Rattus norvegicus [1]): 79.8%; inhibition (INH) (Mus musculus): 62.54%; UI (Rattus norvegicus [2]): 0.471; Activity [3]: 4.16 nmol

**Q.** How did the inhibition in vivo (Rattus norvegicus [1]) turn out when `CC(=O)Oc1ccccc1-c1nn2c(-c3ccncc3)nnc2s1` was run?
**A.** Its inhibition in vivo is 39.8%.

**Q.** What about the “inhibition (INH)” value (Mus musculus) of the same molecule?
**A.** Its value is 25%.

**Q.** And the UI (Rattus norvegicus [2])?
**A.** The UI was 2.25.

**Q.** And the Activity [3]?
**A.** The Activity was 8.82 nmol.

**Q.** With `c1ccc(Oc2nn3c(-c4ccncc4)nnc3s2)cc1` as the molecule, how does the inhibition in vivo (Rattus norvegicus [1]) read?
**A.** Its inhibition in vivo is 63.5%.

**Q.** What about the “inhibition (INH)” value (Mus musculus) of the same molecule?
**A.** The value was 52.27%.

**Q.** And the UI (Rattus norvegicus [2])?
**A.** Its UI is 1.5.

**Q.** And the Activity [3]?
**A.** The Activity was 7.32 nmol.

**Q.** What does the source list for `O=[N+]([O-])c1ccc(-c2nn3c(-c4ccncc4)nnc3s2)cc1`?
**A.** inhibition in vivo (Rattus norvegicus [1]): 86.3%; inhibition (INH) (Mus musculus): 74.32%; UI (Rattus norvegicus [2]): 0.324; Activity (Rattus norvegicus [4]): 138.32 U/ml; Activity (Rattus norvegicus [5]): 29.34 U/ml; Activity (Rattus norvegicus [6]): 12.76 U/ml; Activity (Rattus norvegicus [7]): 1.78 g/dL; Activity (Rattus norvegicus [8]): 1.77 g/dL; Activity (Liver [9]): Non-toxic; Activity [3]: 3.47 nmol

**Q.** How did the inhibition in vivo (Rattus norvegicus [1]) turn out when `Clc1ccccc1-c1nnc(-c2ccncc2)o1` was run?
**A.** The inhibition in vivo was 37.7%.

**Q.** What about the “inhibition (INH)” value (Mus musculus) of the same molecule?
**A.** The value was 29.54%.

**Q.** What about the UI (Rattus norvegicus [2]) of the same molecule?
**A.** The UI was 2.

**Q.** What about the Activity [3] of the same molecule?
**A.** The Activity was 8.11 nmol.

**Q.** How did the inhibition in vivo (Rattus norvegicus [1]) turn out when `Clc1ccc(-c2nnc(-c3ccncc3)o2)c(Cl)c1` was run?
**A.** The inhibition in vivo was 84%.

**Q.** And the “inhibition (INH)” value (Mus musculus)?
**A.** The value was 70.37%.

**Q.** And the UI (Rattus norvegicus [2])?
**A.** The UI was 0.386.

**Q.** What about the Activity (Rattus norvegicus [4]) of the same molecule?
**A.** The Activity was 136.24 U/ml.

**Q.** What about the Activity (Rattus norvegicus [5]) of the same molecule?
**A.** The Activity was 28.67 U/ml.

**Q.** What about the Activity (Rattus norvegicus [6]) of the same molecule?
**A.** The Activity was 13.79 U/ml.

**Q.** And the Activity (Rattus norvegicus [7])?
**A.** The Activity was 1.76 g/dL.

**Q.** And the Activity (Rattus norvegicus [8])?
**A.** The Activity was 1.72 g/dL.

**Q.** What about the Activity (Liver [9]) of the same molecule?
**A.** Its Activity is “Non-toxic”.

**Q.** What about the Activity [3] of the same molecule?
**A.** Its Activity is 3.29 nmol.

**Q.** What does the source list for `Cc1ccccc1-c1nnc(-c2ccncc2)o1`?
**A.** inhibition in vivo (Rattus norvegicus [1]): 43.4%; inhibition (INH) (Mus musculus): 31.81%; UI (Rattus norvegicus [2]): 2.266; Activity [3]: 7.33 nmol

**Q.** `CC(=O)Oc1ccccc1-c1nnc(-c2ccncc2)o1` was tested. Which inhibition in vivo (Rattus norvegicus [1]) did it give?
**A.** The inhibition in vivo was 63.4%.

**Q.** And the “inhibition (INH)” value (Mus musculus)?
**A.** Its value is 57.57%.

**Q.** What about the UI (Rattus norvegicus [2]) of the same molecule?
**A.** The UI was 0.831.

**Q.** What about the Activity [3] of the same molecule?
**A.** The Activity was 5.19 nmol.

**Q.** Which inhibition in vivo (Rattus norvegicus [1]) does the source give for `c1ccc(Oc2nnc(-c3ccncc3)o2)cc1` here?
**A.** Its inhibition in vivo is 71.2%.

**Q.** And the “inhibition (INH)” value (Mus musculus)?
**A.** The value was 62.14%.

**Q.** What about the UI (Rattus norvegicus [2]) of the same molecule?
**A.** The UI was 0.731.

**Q.** And the Activity [3]?
**A.** Its Activity is 3.33 nmol.

**Q.** What does the source list for `O=[N+]([O-])c1ccc(-c2nnc(-c3ccncc3)o2)cc1`?
**A.** inhibition in vivo (Rattus norvegicus [1]): 54%; inhibition (INH) (Mus musculus): 44.05%; UI (Rattus norvegicus [2]): 1.762; Activity [3]: 6.85 nmol

**Q.** With `c1ccc(-c2nnc(-c3ccncc3)o2)cc1` as the molecule, how does the inhibition in vivo (Rattus norvegicus [1]) read?
**A.** Its inhibition in vivo is 82.6%.

**Q.** And the “inhibition (INH)” value (Mus musculus)?
**A.** Its value is 68.21%.

**Q.** What about the UI (Rattus norvegicus [2]) of the same molecule?
**A.** The UI was 1.667.

**Q.** For `Sc1nnc(-c2ccncc2)o1`, which inhibition in vivo (Rattus norvegicus [1]) is on record?
**A.** The inhibition in vivo was 62.9%.

**Q.** What about the “inhibition (INH)” value (Mus musculus) of the same molecule?
**A.** Its value is 54.28%.

**Q.** What about the UI (Rattus norvegicus [2]) of the same molecule?
**A.** Its UI is 1.327.

**Q.** What about the Activity [3] of the same molecule?
**A.** The Activity was 5.78 nmol.

**Q.** With `CC(C)Cc1ccc(C(C)C(=O)O)cc1` (stereo not drawn) [IBUPROFEN] as the molecule, how does the inhibition in vivo at 70 mg/kg (Rattus norvegicus [10]) read?
**A.** Its inhibition in vivo at 70 mg/kg is 82.7%.

**Q.** What about the “inhibition (INH)” value (Mus musculus) of the same molecule?
**A.** The value was 73.52%.

**Q.** What about the UI (Rattus norvegicus [11]) of the same molecule?
**A.** The UI was 2.315.

**Q.** What about the Activity (Liver [12]) of the same molecule?
**A.** The Activity was 7.51 nmol.

**Q.** And the Activity (Rattus norvegicus [4])?
**A.** Its Activity is 140.14 U/ml.

**Q.** And the Activity (Rattus norvegicus [5])?
**A.** The Activity was 34.26 U/ml.

**Q.** And the Activity (Rattus norvegicus [6])?
**A.** Its Activity is 11.67 U/ml.

**Q.** What about the Activity (Rattus norvegicus [7]) of the same molecule?
**A.** Its Activity is 1.74 g/dL.

**Q.** What about the Activity (Rattus norvegicus [8]) of the same molecule?
**A.** The Activity was 1.71 g/dL.

**Q.** `NNC(=O)c1ccncc1` [ISONIAZID] was tested. Which inhibition in vivo (Rattus norvegicus [1]) did it give?
**A.** Its inhibition in vivo is 51.6%.

**Q.** What about the “inhibition (INH)” value (Mus musculus) of the same molecule?
**A.** Its value is 45.9%.

**Q.** What about the UI (Rattus norvegicus [2]) of the same molecule?
**A.** Its UI is 3.75.

**Q.** What about the Activity (Rattus norvegicus [4]) of the same molecule?
**A.** The Activity was 151.25 U/ml.

**Q.** What about the Activity (Rattus norvegicus [5]) of the same molecule?
**A.** The Activity was 40.21 U/ml.

**Q.** And the Activity (Rattus norvegicus [6])?
**A.** The Activity was 8.31 U/ml.

**Q.** And the Activity (Rattus norvegicus [7])?
**A.** Its Activity is 1.55 g/dL.

**Q.** What about the Activity (Rattus norvegicus [8]) of the same molecule?
**A.** The Activity was 1.48 g/dL.
